Reference: publication PMC1779548, “Antihuman Immunodeficiency Virus Type 1 (HIV-1) Activity of Rare Earth Metal Complexes of 4-Hydroxycoumarins in Cell Culture” (Bioinorganic Chemistry and Applications, 2006)

Key:
HIV-1 = conditions: at MNC, 72 h incubation, supernatants of HIV-1 infected MT-2 cells, averaged after at least 3 experiments
Procedure: Endogenous RT activity of supernatants of HIV-1 infected MT-2 cells treated/untreated with complexes and ligands was tested by HS-Lenti Kit-RT assay (Cavidi, Sweden). The kit contained recombinant RT (rRT) as a standard which made possible quantitation of the RT in the sample. The method is nonradioactive and colorimetrically detects RT activity product (DNA) at 405 nm (OD405) [3].

MT-2 cells = assay: in vitro; format: cell-based; conditions: for CC50 / MNC (maximal nontoxic concentration) / MNC higher compared to La(1) and the ligand (1): MT-2 cells; for CC50 / MNC (maximal nontoxic concentration): neutral red uptake, 72 h; for MNC higher compared to La(1) and the ligand (1): ratio of MNC
Text: (§1) The following cell lines were used: H9/HTLV III B—chronically infected with HIV-1LAI cells, kindly provided by Professor R. Gallo, and MT-2 uninfected human lymphoblastoid cells, HTLV-I transformed. The cells were maintained in RPMI 1640 plus 10% FCS.
(§2) The following parameters were studied: cytotoxic concentration 50—CC50 (concentration […] death of 50% of MT-2 cells), maximal nontoxic concentration—MNC (the highest concentration causing no cytotoxicity), and inhibitory concentration 50–IC50 (concentration inhibiting by 50% the viral replication). CC50 and MNC were detected by neutral red uptake assay. IC50 was studied on MT-2 cells by microtiter infection assay using neutral red uptake. Briefly, the experimental procedure under conditions of acute infection was performed in 96-well microplates in the following sequence:
(§3) • 100 μL MT-2 cells (4–5 × 10 ^4 cells); • 50 μL HIV-1 (undiluted or in the appropriate dilution to obtain multiplicity of infection ≥ 1); contact (2 hours at 37°C/5% CO2); when CC50 and MNC were detected, growth medium instead of virus has been added; • 50 μL sample of substance tested starting from 4× MNC (because this volume is 1/4 of the whole volume in the well) and 2- or 10-fold dilutions in growth medium.
(§4) The cells were incubated for 72 hours and then 100 μL of them were removed to another 96-well plate previously treated for an hour with 50 μg/mL poly-L-lysine (PLL) in volume 100 μL. A solution of 100 μL per well of neutral red in growth medium (0.016%) was added and the cells were incubated for 2 hours at 37°C/5% CO2. Neutral red dye was extracted by acidified alcohol (50% ethanol in 1% acetic acid) and measured colorimetrically at 540 nm. Each plate contained 8 cell control wells (no virus, no substance) for all kinds of experiments. When IC50 was detected, a row of 8 viral controls (plus virus, no substance) and rows of 8 experimental wells (plus virus, different dilutions of the substance) were performed. The values of optical density at 540 nm (OD540) were averaged for each row and the mean values of experimental and control rows were compared. As far as the ligands and their complexes were DMSO soluble, the appropriate controls of DMSO and DMSO + HIV-1 in growth medium were always considered.

HIV-1LAI = assay: Microtiter infection assay (neutral red uptake), acute infection of MT-2 cells; format: cell-based; conditions: for Inhibition (%): 2.5 μM, HIV-1LAI infected MT-2 cells; for anti-HIV potency (in words): MT-2/HIV-1, at or under MNC
Procedure: As a source of HIV-1, the supernatant of H9/HTLV III B cell line was used. The supernatants were collected and centrifuged to remove the cells, and virus stocks were prepared with known p24 antigen content, RT activity and infectivity. MT-2 cells were infected with HIV-1 (multiplicity of infection ≥ 1) in suspension (37°C/5% CO2) and then grown parallely with uninfected ones for 72 hours.
CC50 and MNC were detected by neutral red uptake assay. IC50 was studied on MT-2 cells by microtiter infection assay using neutral red uptake. Briefly, the experimental procedure under conditions of acute infection was performed in 96-well microplates in the following sequence:
as §3, §4

[1] = tested on: H9/HTLV III B cells chronically producing HIV-1LAI; assay: Chronic infection: microtiter infection assay on MT-2 cells with supernatants of treated H9/HTLV III B cells; format: cell-based; conditions: undiluted supernatant on MT-2 cells
Procedure: (§5) The effect of the compounds was also studied under conditions of chronic infection using productively HIV-infected cells (H9/HTLV III B). The production of infectious virions was measured again using the cytopathic effect of supernatants on MT-2 cells as described above.
(§6) To address further the target of HIV inhibition especially by La(W), a study of this complex for effect on late stages of HIV-1 life cycle (protease, budding, assembly) was carried out. To do this, we treated H9/HTLV III B cells—chronically producing HIV-1—with La(W) at 3 concentrations, starting from MNC. Also, 10× dilution of Indinavir was used as a reference for antiprotease effect. Table 7 represents the results for the effect of La(W) in 3 concentrations on late stages of HIV replication.

[2] = tested on: H9/HTLV III B cells chronically producing HIV-1LAI; assay: Chronic infection: RT activity in supernatants of treated H9/HTLV III B cells; format: cell-based
Procedure: as §5, §6

in vitro = format: cell-based; conditions: MT-2 cells, neutral red uptake, 72 h
Text: as §1, §2, §3, §4

Row | Structure (SMILES) | HIV inhibition (%) Endogenous RT activity (HIV-1) | CC50 (MT-2 cells) [µM] | MNC (maximal nontoxic concentration) (MT-2 cells) | MNC higher compared to La(1) and the ligand (1) (MT-2 cells) | Inhibition (%) (HIV-1LAI; 72 h incubation) | anti-HIV potency (in words) (HIV-1LAI) | CC50 at 72 h (in vitro) [µM] | also measured
1 | O.O=c1oc2ccccc2c([O-])c1C(c1ccccc1)c1c([O-])c2ccccc2oc1=O.[Nd+3].[OH-] [Nd(1)] | ∼ 1% | 125 | 2.5 µM | 10–50 times | 10,4% | limited anti-HIV potency |  | lower cytotoxicity compared to the other lanthanides and the ligand (1) (MT-2 cells; ratio of CC50, MT-2 cells): at least 5 times; HIV inhibition (%) Microtiter infection assay (HIV-1LAI; at MNC, 72 h incubation, MT-2 cells, averaged after at least 3 experiments): 10.4%
2 | O.O=c1oc2ccccc2c([O-])c1C(c1ccccc1)c1c([O-])c2ccccc2oc1=O.[La+3].[OH-] [La(1)] |  | 25 | 0,25 μM |  |  |  |  | 
3 | CC(C)(C)NC(=O)[C@@H]1CN(Cc2cccnc2)CCN1C[C@@H](O)C[C@@H](Cc1ccccc1)C(=O)N[C@H]1c2ccccc2C[C@H]1O [Indinavir] |  |  |  |  |  |  |  | Microtiter infection assay OD540 ([1]; 0.05 μM): 0.739 OD540; Microtiter infection assay OD540 ([1]; 0.5 μM): 0.633 OD540; Microtiter infection assay OD540 ([1]; 5 μM): 0.520 OD540; Microtiter infection assay OD540 ([1]; 50 μM): 0.375 OD540; RT activity of SNs OD405 ([2]; 0.05 μM): 1.454 OD405; RT activity of SNs OD405 ([2]; 0.5 μM): 1.400 OD405; RT activity of SNs OD405 ([2]; 5 μM): 1.154 OD405; RT activity of SNs OD405 ([2]; 50 μM): 0.903 OD405
4 | O=c1oc2ccccc2c(O)c1C(c1ccccc1)c1c(O)c2ccccc2oc1=O [(1), 3,3′-benzylidenebis[4-hydroxycoumarin]] |  |  | 0,25 μM |  |  |  | 25 | 
5 | O.O.O=c1oc2ccccc2c([O-])c1C(c1ccccc1)c1c([O-])c2ccccc2oc1=O.[Ce+3].[OH-] [Ce(1)] | ∼ 1% | 25 | 12,5 μM | 10–50 times | 8,7% | limited anti-HIV potency |  | 
6 | CC(=O)CC(c1ccccc1)c1c(O)c2ccccc2oc1=O (centres unmarked) [(W), 4-hydroxy-3-(3-oxo-1-phenylbutyl)-2H-1-benzopyran-2-one, reference compound] | ∼ 1% |  | 25 µM |  |  |  | 250 | 
